Reference: patent publication US12410166B2, “Sulfonylamidine substituted compounds and their use as beta-lactamase inhibitors” (NINGXIA ACADEMY OF AGRICULTURE AND FORESTRY SCIENCES, priority 2021, dated 2025)
Structures can show the parent of a compound that is named as a salt. Where two headings read alike, the source gives them in different places.

Assays:
Test in all cases: MIC by broth microdilution (antibacterial and synergistic activity)
Format in all cases: cell-based
[1] = system: A. baumannii 19606 (strain 8, OXA-24); conditions: Acinetobacter baumannii, read-out: Antibacterial activity, MIC, inhibitor Alone
Method: (§1) Compounds of the present invention alone, avibactam (AVI) alone, relebactam (REL) alone, meropenem (MER) alone, imipenem (IMI) alone, and as a combination of compounds of the present invention, or avibactam or relebactam with test antibiotic (meropenem or imipenem) was tested for antimicrobial activity by determining minimum inhibitory concentration (MIC, mg/L) using the broth microdilution method according to the guidelines of the Clinical Laboratories and Standards Institute (“Methods for Dilution Antimicrobial Susceptibility Tests for Bacterial that Grow Aerobically”, Approved standard, 7th ed., Clinical and Laboratories Standards Institute (CLSI) Document M7-A8, Wayne, Pa., USA, 2009). Meropenem or imipenem as a test antibiotic compound was dissolved in DMSO, and then diluted in microbial growth medium (Mueller-Hinton Broth II, cation adjusted) resulting in a final concentration range of 0.031-64 mg/L in serial two-fold dilution. In all cases the final DMSO concentration was less than 0.5%. Bacteria were added to 96-well microtitre plates containing the serial two-fold dilutions of the compounds; the final cell density was approximately 5×10^5 colony forming units/mL (CFU/mL). Plates were incubated at 37° C. for 18-24 hours and read visually. The MIC, i.e. the lowest concentration of the test compound that inhibited visible growth of the bacteria, was recorded. The same assay conditions were used when the compounds of present invention alone, avibactam or relebactam alone (as a control), and as a combination of the present invention each compound, or avibactam or relebactam with test meropenem or imipenem antibiotic compound was tested for minimum inhibitory concentration (MIC, mg/L). While test meropenem or imipenem was serially diluted as described above, a constant concentration of avibactam, or relebactam or the present invention each compound of 4 mg/L was used.
(§2) Bacterial strains that were used to evaluate the antimicrobial activity using the MIC determination included but were not limited to E. coli clinical isolate (strain 1, TEM-1), E. coli 8739 (strain 2, CTX-M15), K. pneumoniae clinical isolate (strain 3, SHV-1), K. pneumoniae 700603 (strain 4, KPC-3, TEM-1), E. cloacae clinical isolate (strain 5, P99), E. cloacae 700323 (strain 6, AmpC), A. baumannii clinical isolate (strain 7, OXA-23, OXA-40), A. baumannii 19606 (strain 8, OXA-24), P. aeruginosa clinical isolate (strain 9, KPC-2), P. aeruginosa 9027 (strain 10, AmpC).

[2] = system: A. baumannii clinical isolate (strain 7, OXA-23, OXA-40); conditions: Acinetobacter baumannii, read-out: Antibacterial activity, MIC, inhibitor Alone
Method: as §1, §2

[3] = system: E. cloacae 700323 (strain 6, AmpC); conditions: Enterobacter cloacae, read-out: Antibacterial activity, MIC, inhibitor Alone
Method: as §1, §2

[4] = system: E. cloacae clinical isolate (strain 5, P99); conditions: Enterobacter cloacae, read-out: Antibacterial activity, MIC, inhibitor Alone
Method: as §1, §2

[5] = system: E. coli 8739 (strain 2, CTX-M15); conditions: Escherichia coli, read-out: Antibacterial activity, MIC, inhibitor Alone
Method: as §1, §2

[6] = system: E. coli clinical isolate (strain 1, TEM-1); conditions: Escherichia coli, read-out: Antibacterial activity, MIC, inhibitor Alone
Method: as §1, §2

[7] = system: K. pneumoniae 700603 (strain 4, KPC-3, TEM-1); conditions: Klebsiella pneumoniae, read-out: Antibacterial activity, MIC, inhibitor Alone
Method: as §1, §2

[8] = system: K. pneumoniae clinical isolate (strain 3, SHV-1); conditions: Klebsiella pneumoniae, read-out: Antibacterial activity, MIC, inhibitor Alone
Method: as §1, §2

[9] = system: P. aeruginosa 9027 (strain 10, AmpC); conditions: Pseudomonas aeruginosa, read-out: Antibacterial activity, MIC, inhibitor Alone
Method: as §1, §2

[10] = system: P. aeruginosa clinical isolate (strain 9, KPC-2); conditions: Pseudomonas aeruginosa, read-out: Antibacterial activity, MIC, inhibitor Alone
Method: as §1, §2

[11] = strain 7 (OXA-23/40), compound alone, no antibiotic
[12] = strain 6 (AmpC), compound alone, no antibiotic
[13] = strain 5 (P99), compound alone, no antibiotic
[14] = strain 1 (TEM-1), compound alone, no antibiotic
[15] = strain 4 (KPC-3, TEM-1), compound alone, no antibiotic
[16] = strain 3 (SHV-1), compound alone, no antibiotic
[17] = strain 10 (AmpC), compound alone, no antibiotic
[18] = strain 9 (KPC-2), compound alone, no antibiotic

Measured: MIC

CS(=O)(=O)NC(=N)[C@@H]1CC[C@@H]2CN1C(=O)N2OS(=O)(=O)[O-].[Na+] [Ex. 5, Sodium (2S,5R)-2-(N-(methylsulfonyl)carbamimidoyl)-7-oxo-1,6-diazabicyclo[3.2.1]octan-6-yl sulfate]
> 64 µg/mL: [1] | [2]; [11] | [3]; [12] | [4]; [13] | [5] | [6]; [14] | [7]; [15] | [8]; [16] | [9]; [17] | [10]; [18]

N=C(NS(N)(=O)=O)[C@@H]1CC[C@@H]2CN1C(=O)N2OS(=O)(=O)O [Ex. 16, (2S,5R)-7-oxo-2-(N-Sulfamoylcarbamimidoyl)-1,6-diazabicyclo[3.2.1]octan-6-yl hydrogen sulfate]
> 64 µg/mL: [1] | [2]; [11] | [3]; [12] | [4]; [13] | [5] | [6]; [14] | [7]; [15] | [8]; [16] | [9]; [17] | [10]; [18]

Cc1ccc(S(=O)(=O)NC(=N)[C@@H]2CC[C@@H]3CN2C(=O)N3OS(=O)(=O)[O-])cc1.[Na+] [Ex. 9, Sodium (2S,5R)-7-oxo-2-(N-tosylcarbamimidoyl)-1,6-diazabicyclo[3.2.1]octan-6-yl sulfate]
> 64 µg/mL: [1] | [2]; [11] | [3]; [12] | [4]; [13] | [5] | [6]; [14] | [7]; [15] | [8]; [16] | [9]; [17] | [10]; [18]

O=C(NC1CCNCC1)[C@@H]1CC[C@@H]2CN1C(=O)N2OS(=O)(=O)O [REL, relebactam, reference compound]
> 64 µg/mL: [1] | [2]; [11] | [3]; [12] | [4]; [13] | [5] | [6]; [14] | [7]; [15] | [8]; [16] | [9]; [17] | [10]; [18]

N=C(NS(=O)(=O)c1cnccn1)[C@@H]1CC[C@@H]2CN1C(=O)N2OS(=O)(=O)O [Ex. 24, (2S,5R)-7-oxo-2-(N-(pyrazin-2-ylsulfonyl)carbamimidoyl)-1,6-diazabicyclo[3.2.1]octan-6-yl hydrogen sulfate]
> 64 µg/mL: [1] | [2]; [11] | [3]; [12] | [4]; [13] | [5] | [6]; [14] | [7]; [15] | [8]; [16] | [9]; [17] | [10]; [18]

COc1ccc(S(=O)(=O)NC(=N)[C@@H]2CC[C@@H]3CN2C(=O)N3OS(=O)(=O)O)cn1 [Ex. 21, (2S,5R)-2-(N-((6-methoxypyridin-3-yl)sulfonyl)carbamimidoyl)-7-oxo-1,6-diazabicyclo[3.2.1]octan-6-yl hydrogen sulfate]
> 64 µg/mL: [1] | [2]; [11] | [3]; [12] | [4]; [13] | [5] | [6]; [14] | [7]; [15] | [8]; [16] | [9]; [17] | [10]; [18]

NC(=O)[C@@H]1CC[C@@H]2CN1C(=O)N2OS(=O)(=O)O [AVI, avibactam, reference compound]
> 64 µg/mL: [1] | [2]; [11] | [3]; [12] | [4]; [13] | [5] | [6]; [14] | [7]; [15] | [8]; [16] | [9]; [17] | [10]; [18]

N=C(NS(=O)(=O)c1cccnc1)[C@@H]1CC[C@@H]2CN1C(=O)N2OS(=O)(=O)[O-].[Na+] [Ex. 13, Sodium (2S,5R)-7-oxo-2-(N-(pyridin-3-ylsulfonyl)carbamimidoyl)-1,6-diazabicyclo[3.2.1]octan-6-yl sulfate]
> 64 µg/mL: [1] | [2]; [11] | [3]; [12] | [4]; [13] | [5] | [6]; [14] | [7]; [15] | [8]; [16] | [9]; [17] | [10]; [18]

N=C(NS(=O)(=O)C1CC1)[C@@H]1CC[C@@H]2CN1C(=O)N2OS(=O)(=O)[O-].[Na+] [Ex. 6, Sodium (2S,5R)-2-(N-(cyclopropylsulfonyl)carbamimidoyl)-7-oxo-1,6-diazabicyclo[3.2.1]octan-6-yl sulfate]
> 64 µg/mL: [1] | [2]; [11] | [3]; [12] | [4]; [13] | [5] | [6]; [14] | [7]; [15] | [8]; [16] | [9]; [17] | [10]; [18]

CCS(=O)(=O)NC(=N)[C@@H]1CC[C@@H]2CN1C(=O)N2OS(=O)(=O)[O-].[Na+] [Ex. 8, Sodium (2S,5R)-2-(N-(ethylsulfonyl)carbamimidoyl)-7-oxo-1,6-diazabicyclo[3.2.1]octan-6-yl sulfate]
> 64 µg/mL: [1] | [2]; [11] | [3]; [12] | [4]; [13] | [5] | [6]; [14] | [7]; [15] | [8]; [16] | [9]; [17] | [10]; [18]

COC(=O)CCS(=O)(=O)NC(=N)[C@@H]1CC[C@@H]2CN1C(=O)N2OS(=O)(=O)[O-].[Na+] [Ex. 4, Sodium (2S,5R)-2-(N-((3-methoxy-3-oxopropyl)sulfonyl)carbamimidoyl)-7-oxo-1,6-diazabicyclo[3.2.1]octan-6-ylsulfate]
> 64 µg/mL: [1] | [2] | [3] | [4] | [5] | [6] | [7] | [8] | [9] | [10]
